Results as given in patent US11921308B2, “Polarizer and image display device” (FUJIFILM Corporation, priority 2018, dated 2024).

Experiment: compatibility between liquid crystal compound and dichroic material (phase separation observed on hot stage under polarizing microscope)
Type: physicochemical
Set-up: key: Compatible: in a case where phase separation is not observed, it is defined as “compatible”; Incompatible: in a case where phase separation is observed, it is defined as “incompatible”
Settings: with the liquid crystal compound of the same composition (same example)
Text: Here, the compatibility between the liquid crystal compound and the dichroic material can be confirmed by the following method.
First, two polarizers of an optical microscope (ECLIPSE E600 POL, manufactured by Nikon Corporation) are arranged so as to be orthogonal to each other, and a sample stand is set between the two polarizers.
Next, a sample composition obtained by mixing the liquid crystal compound contained in the polarizer-forming composition and a certain kind of dichroic material at a mass ratio is cast on glass, and this glass is set on a hot stage placed on the sample stand.
Next, the phase separation state of the sample is observed by raising or lowering the temperature of the hot stage in a range of higher than or equal to a higher temperature between the melting point of the liquid crystal compound and the melting point of the dichroic material and lower than or equal to a lower temperature between the isotropic phase transition temperature of the liquid crystal compound and the isotropic phase transition temperature of the dichroic material.
In this operation, in a case where phase separation is not observed, it is defined as “compatible”. Further, in a case where phase separation is observed, it is defined as “incompatible”.
Further, the compatibility between the liquid crystal compound and the first dichroic material or the second dichroic material in the polarizer-forming composition was confirmed by the method described above, and the results thereof are listed in Table 1.

Second dichroic material Compatible or incompatible | Compound
Incompatible | C=CC(=O)OCCN(CC)c1ccc(N=Nc2nc3sc(N=Nc4ccc(OCCCCCCCCCOC(=O)CC)cc4)cc3s2)cc1 [Example C4]
Incompatible | C=CC(=O)OCCCCCCCCCCCOc1ccc(N=Nc2cc3sc(NC(=O)c4ccc(CCCC)cc4)nc3s2)cc1 [Example Y7]
Incompatible | C=CC(=O)OCCCCCCCCCOc1ccc(N=Nc2cc3sc(N=Nc4ccc(N(CC)CCOC(=O)C=C)cc4C)nc3s2)cc1 [Example C3]
Incompatible | C=CC(=O)OCCCCCCCCCCOc1ccc(N=Nc2cc3sc(N=Nc4ccc(N(CC)CCOC(=O)C=C)cc4)nc3s2)cc1 [Example C2]
Incompatible | C=CC(=O)OCCCCCCCCCOc1ccc(N=Nc2cc3sc(N=Nc4ccc(N(CC)CCOC(=O)C=C)cc4)nc3s2)cc1 [Example C1]
Incompatible | C=CC(=O)OCCCCCCCCCCCCOc1ccc(N=Nc2ccc(N=Nc3ccc(N=Nc4ccc(OCCCCCCCCCCCCOC(=O)C=C)cc4O)cc3)c(C)c2)cc1 [Example Y4]

Same assay, conditions: with the liquid crystal compound of the same composition; first listed first dichroic material

First dichroic material Compatible or incompatible | Compound
Compatible | C=CC(=O)OCCCCCCCCOc1ccc(N=Nc2ccc(N=Nc3ccc(N=Nc4ccc(OCCCCCCCCOC(=O)C=C)cc4)cc3C)cc2)cc1 [Example Y6]
Compatible | C=CC(=O)OCCCCCOc1ccc(N=Nc2ccc(N=Nc3ccc(N=Nc4ccc(OCCCCCOC(=O)C=C)cc4)cc3C)cc2)cc1 [Example Y3]
Compatible | C=CC(=O)OCCCCCCOc1ccc(N=Nc2ccc(N=Nc3ccc(N=Nc4ccc(OCCCCCCOC(=O)C=C)cc4)cc3C)cc2)cc1 [Example Y5]
Compatible | C=CC(=O)OCCN(CC)c1ccc(N=Nc2nc3sc(N=Nc4ccc(OCCCCCCOC(C)=O)cc4)cc3s2)cc1 [Example C5]

The remaining lines, values behind:

Compound | First dichroic material Compatible or incompatible
C=CC(=O)OCCCCOc1ccc(N=Nc2ccc(N=Nc3ccc(N=Nc4ccc(OCCCCOC(=O)C=C)cc4)cc3C)cc2)cc1 [Example Y1] | Compatible
C=CC(=O)CC(C)OC(=O)CCC(=O)OCCc1ccc(N=Nc2cc3sc(NC(=O)c4ccc(CCCC)cc4)nc3s2)cc1 (stereo not drawn) [Example Y8] | Compatible
C=CC(=O)OCCCCOc1ccc(N=Nc2ccc(N=Nc3ccc(N=Nc4ccc(OCCCCOC(=O)C=C)cc4O)cc3)c(C)c2)cc1 [Example Y2] | Compatible

Same assay, conditions: with the liquid crystal compound of the same composition; second listed first dichroic material

First dichroic material Compatible or incompatible | Compound
Compatible | C=CC(=O)OCCN(CC)c1ccc(N=Nc2nc3sc(N=Nc4ccc(OCCCCCCOC(C)=O)cc4)cc3s2)cc1 [Example C5]
Compatible | FC(F)(F)c1ccc(N=Nc2ccc(N=Nc3ccc(N4CCCC4)cc3)cc2)cc1 [Example M1]
Compatible | CCCCc1ccc(N=Nc2ccc(N=Nc3ccc(N(CC)CCC#N)cc3)cc2)cc1 [Example M2]
Compatible | C=CC(=O)CCCN(CC)c1ccc(N=Nc2ccc(N=Nc3ccc(CCCC)cc3)cc2)cc1 [Example M3]

Experiment: maximum absorption wavelength of the dichroic material from ultraviolet visible spectrum in solution
Type: physicochemical
Settings: solution in a good solvent, 380 to 800 nm
Text: Here, the maximum absorption wavelength (nm) of the dichroic material is acquired from an ultraviolet visible spectrum in a wavelength range of 380 to 800 nm measured by a spectrophotometer using a solution prepared by dissolving the dichroic material in a good solvent.

maximum absorption wavelength [nm] | Compound
592 | C=CC(=O)OCCN(CC)c1ccc(N=Nc2nc3sc(N=Nc4ccc(OCCCCCCCCCOC(=O)CC)cc4)cc3s2)cc1 [Example C4]
443 | C=CC(=O)OCCCCCCCCCCCOc1ccc(N=Nc2cc3sc(NC(=O)c4ccc(CCCC)cc4)nc3s2)cc1 [Example Y7]
413 | C=CC(=O)OCCCCCCCCOc1ccc(N=Nc2ccc(N=Nc3ccc(N=Nc4ccc(OCCCCCCCCOC(=O)C=C)cc4)cc3C)cc2)cc1 [Example Y6]
413 | C=CC(=O)OCCCCCOc1ccc(N=Nc2ccc(N=Nc3ccc(N=Nc4ccc(OCCCCCOC(=O)C=C)cc4)cc3C)cc2)cc1 [Example Y3]
605 | C=CC(=O)OCCCCCCCCCOc1ccc(N=Nc2cc3sc(N=Nc4ccc(N(CC)CCOC(=O)C=C)cc4C)nc3s2)cc1 [Example C3]
592 | C=CC(=O)OCCCCCCCCCCOc1ccc(N=Nc2cc3sc(N=Nc4ccc(N(CC)CCOC(=O)C=C)cc4)nc3s2)cc1 [Example C2]
413 | C=CC(=O)OCCCCCCOc1ccc(N=Nc2ccc(N=Nc3ccc(N=Nc4ccc(OCCCCCCOC(=O)C=C)cc4)cc3C)cc2)cc1 [Example Y5]
592 | C=CC(=O)OCCN(CC)c1ccc(N=Nc2nc3sc(N=Nc4ccc(OCCCCCCOC(C)=O)cc4)cc3s2)cc1 [Example C5]
592 | C=CC(=O)OCCCCCCCCCOc1ccc(N=Nc2cc3sc(N=Nc4ccc(N(CC)CCOC(=O)C=C)cc4)nc3s2)cc1 [Example C1]

Further lines, the molecule ahead of its results:

Compound | maximum absorption wavelength [nm]
C=CC(=O)OCCCCOc1ccc(N=Nc2ccc(N=Nc3ccc(N=Nc4ccc(OCCCCOC(=O)C=C)cc4)cc3C)cc2)cc1 [Example Y1] | 413
C=CC(=O)CC(C)OC(=O)CCC(=O)OCCc1ccc(N=Nc2cc3sc(NC(=O)c4ccc(CCCC)cc4)nc3s2)cc1 (stereo not drawn) [Example Y8] | 430
C=CC(=O)OCCCCOc1ccc(N=Nc2ccc(N=Nc3ccc(N=Nc4ccc(OCCCCOC(=O)C=C)cc4O)cc3)c(C)c2)cc1 [Example Y2] | 445
FC(F)(F)c1ccc(N=Nc2ccc(N=Nc3ccc(N4CCCC4)cc3)cc2)cc1 [Example M1] | 502
C=CC(=O)OCCCCCCCCCCCCOc1ccc(N=Nc2ccc(N=Nc3ccc(N=Nc4ccc(OCCCCCCCCCCCCOC(=O)C=C)cc4O)cc3)c(C)c2)cc1 [Example Y4] | 445
CCCCc1ccc(N=Nc2ccc(N=Nc3ccc(N(CC)CCC#N)cc3)cc2)cc1 [Example M2] | 457
C=CC(=O)CCCN(CC)c1ccc(N=Nc2ccc(N=Nc3ccc(CCCC)cc3)cc2)cc1 [Example M3] | 442
